Laboratory results as given in patent US8158165B2, “Preventative treatment and remission of allergic diseases” (CSIR, priority 2006, dated 2012).

Experiments:
[1] = molecular target: T1, human glucocorticoid receptors (Homo sapiens, UniProt P04150); experiment: glucocorticoid receptor (GR) binding assay, [3H]Dexamethasone, HeLa S3 cells
T1 construct: endogenous in cells; host or cells: HeLa S3 (human cervix carcinoma) cells
T1 sequence (P04150 1-777): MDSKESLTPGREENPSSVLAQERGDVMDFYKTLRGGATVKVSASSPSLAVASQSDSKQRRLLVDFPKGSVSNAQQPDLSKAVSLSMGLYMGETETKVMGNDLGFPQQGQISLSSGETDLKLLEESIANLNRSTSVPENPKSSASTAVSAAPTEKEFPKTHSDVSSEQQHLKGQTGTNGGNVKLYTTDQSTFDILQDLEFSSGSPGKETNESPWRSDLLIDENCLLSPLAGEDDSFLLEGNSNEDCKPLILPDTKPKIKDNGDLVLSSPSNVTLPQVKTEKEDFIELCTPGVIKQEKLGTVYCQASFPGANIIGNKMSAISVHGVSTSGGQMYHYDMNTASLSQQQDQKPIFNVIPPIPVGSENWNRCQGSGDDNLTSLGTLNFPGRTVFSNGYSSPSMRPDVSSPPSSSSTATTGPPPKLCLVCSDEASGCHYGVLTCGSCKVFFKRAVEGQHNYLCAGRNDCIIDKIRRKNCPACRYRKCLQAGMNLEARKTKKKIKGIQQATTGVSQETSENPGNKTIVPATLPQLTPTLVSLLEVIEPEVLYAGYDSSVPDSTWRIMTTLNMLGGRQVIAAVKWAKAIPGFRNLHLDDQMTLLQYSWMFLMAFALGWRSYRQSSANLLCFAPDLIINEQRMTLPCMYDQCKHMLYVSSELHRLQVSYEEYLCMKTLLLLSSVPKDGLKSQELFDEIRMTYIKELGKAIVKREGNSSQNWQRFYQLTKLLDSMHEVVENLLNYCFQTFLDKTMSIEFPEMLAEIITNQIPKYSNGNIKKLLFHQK
Source text: Biochemical assay results as presented herein are reflected as the percent inhibition of specific binding or activity of a compound. The assay is described in Cidlowski, J. A. and Cidlowski, N. B., Regulation of glucocorticoid receptors by glucocorticoids in cultured HeLa S3 cells. Endocrinology 109: 1975-1982, 1981, the contents of which are incorporated herein by way of reference. This assay specifically measures the ability of active glucocorticoids in glucocorticoid receptor downregulation.
This assay measures binding of [^3H]Dexamethasone to human glucocorticoid receptors. HeLa S3 cells are suspended in modified HEPES buffer, pH 7.2, using standard techniques.
The cells (1×10^6) are incubated with 6 nM [^3H]Dexamethasone for 120 minutes at 25° C. Non-specific binding is estimated in the presence of 20 μM Dexamethasone. Membranes are filtered and washed three times and the filters are counted to determine [^3H]Dexamethasone specifically bound. Compounds are screened at 10 μM for activity.

[2] = tested on: Phosphodiesterase PDE4; experiment: phosphodiesterase PDE4 enzyme assay; format: biochemical, human; conditions: 100 μg/ml
Protocol: Based on the results shown in Table 6, it follows that the combined fraction (WG-I-5AB+WG-I-5C) is effective in binding to the glucocorticoid receptor (GR) site. […] This inhibitory effect implies that the combined fraction (WG-I-5AB+WG-I-5C) has a bronchodilatory effect. For the PDE4 test, PDE4 which has been partially purified from human U-937 pronocytic cells is used. The test compound and/or vehicle is incubated with 0.2 μg enzyme and 1 μM cAMP containing 0.01 μM [^3H]cAMP in Tris buffer pH 7.5 for 20 minutes at 30° C. The reaction is terminated by boiling for 2 minutes and the resulting AMP is converted to adenosine by addition of 10 mg/ml snake venom necleotidase and further incubation at 30° C. for 10 minutes. Unhydrolyzed cAMP is bound to AGI-X2 resin, and remaining [^3H]adenosine in the aqueous phase is quantified by scintillation counting. Compounds are screened at 100 μM. IBMX (3-isobutyl-1-methylxanthine) is used as standard reference agent.

[3] = tested on: IL-5; experiment: Mediator Release, IL-5 (ConA-stimulated PBMNL cells); format: cell-based, human
Protocol: As regards the human IL-5 mediator release text, the test compound is incubated with Concanavalin A (ConA) (10 μg/ml)-stimulated human peripheral blood mononuclear leukocyte (PBMNL) cells in growth medium RPMI-1640 (pH 7.4) overnight at 37° C. in an incubator. The IL-5 cytokine production levels in the conditioned medium are quantified using a sandwich ELISA kit. […] These same concentrations are concurrently applied to a separate group of treated cells and evaluated for possible compound-induced cytotoxicity only if significant inhibition of release is observed. Dexamethasone is used as standard reference agent.

[4] = tested on: Human T lymphocytic Jurkat cells; experiment: Cytotoxicity, Transcription Response NF-κB; format: cell-based
Protocol: Human T lymphocytic Jurkat cells, transfected with a response element-lacZ reporter in which transcription of the β-galactosidase gene is directed by the binding site for the NF-κB transcription factor, are used. Test compound and/or vehicle are incubated with the cells (1.5×10^6/ml) in the presence of 0.5 μM A23187 and 50 ng/ml PMA (phorbol 12-myristate 13-acetate) in RPMI-1640 pH 7.4 at 37° C. for 4 hours. Test compound-induced β-galactosidase activity is determined by the conversion of FDG (fluorescein di-β-D-galactopyranoside) to fluorescein. Fluorescence intensity is read on SpectroFluor Plus plate reader. […] […] These same concentrations are concurrently applied to a separate group of treated cells and evaluated for possible compound-induced cytotoxicity only if significant stimulation or inhibition is observed (Cat. #361100).

- IC50 [1]: 50.3 µM
- Ki [1]: 22.8 µM
- inhibition at 100 µM ([1]; 100 μM): 70%
- inhibition at 100 µg/mL ([1]; 100 μg/ml): 104%
- nH Glucocorticoid ([1]; Hill coefficient): 1.4
- Inhibition (%) Phosphodiesterase PDE4 [2]: 35%
- EC50 ([3]; Homo sapiens): 16.1 µM
- IC50 ([3]; Homo sapiens, as worded, read-out: IC50 mediator release Interleukin-5 (IL-5) inhibition assay): 16.1 µM
Compound: Cc1coc2c1C[C@H]1[C@H](C)C=CC(=O)[C@]1(C)C2 (relative stereo) [compound 1, 4,4a,5,9-tetrahydro-3,5,8a-trimethylnaptho[2,3-b]furan-8-one]
- ANT. Mediator Release, IL-5 ([3]; 10 nM): 17%
- ANT. Mediator Release, IL-5 ([3]; 0.1 μM): 18%
- ANT. Mediator Release, IL-5 ([3]; 1 μM): 25%
- ANT. Mediator Release, IL-5 ([3]; 10 μM): 36%
- ANT. Mediator Release, IL-5 ([3]; 100 μM): 93%
- ANT. Mediator Release, IL-5 ([3]; 100 μg/ml (Table 13)): 93%
- % RESPONSE Ant, Cytotoxicity, Transcription Response NF-κB ([4]; 0.1 μM): 6%
- % RESPONSE Ant, Cytotoxicity, Transcription Response NF-κB ([4]; 1 μM): 2%
- % RESPONSE Ant, Cytotoxicity, Transcription Response NF-κB ([4]; 10 μM): 2%
- % RESPONSE Ant, Cytotoxicity, Transcription Response NF-κB ([4]; 10 μM, fifth (last) step of the series): 1%
- % RESPONSE Ant, Cytotoxicity, Transcription Response NF-κB ([4]; 100 μM): −3%
- % RESPONSE Ant, Cytotoxicity, Transcription Response NF-κB ([4]; 100 μM, listed as compound of formula 1): no apparent cytotoxicity
